According to patent US4954504A, “N9 -cyclopentyl-substituted adenine derivatives having adenosine-2 receptor stimulating activity” (Ciba-Geigy Corporation, priority 1988, dated 1990):
Structures can show the parent of a compound that is named as a salt.

Tested on: collagen-induced platelet aggregation
Experiment: Inhibition of collagen-induced platelet aggregation in human plasma
Format: cell-based

`CCNC(=O)[C@H]1C[C@@H](n2cnc3c(N)nc(NCCc4ccc(CCC(=O)O)cc4)nc32)[C@H](O)[C@@H]1O` (relative stereo) [Example 7a, 2-alpha,3-alphadihydroxy-4β-[2-(p-carboxyethyl-phenethylamino)-9-adenyl]-cyclopentane-1β-N-ethylcarboxamide hydrochloride] gave an IC50 of about 1500 nM.
